Tests used:
mock-infected MT-4 cells = test: Compound toxicity in mock-infected cells (WST-1 assay); type: cell-based; details: toxicity measure, host cells; read-out: TC50 (concentration of compound that results in death of 50% of the host cells)
Description: (§1) The HTLV-1 transformed T cell line, MT-4, is highly susceptible to HIV-1 infection. Anti-HIV-1 agents were evaluated in this target cell line by protection from the HIV-induced cytopathic effect. In this assay, viability of both HIV-1 and mock-infected cells was assessed in a colorimetric assay that monitors the ability of metabolically-active cells to reduce the tetrazolium salt WST-1. Cytoprotection by antiviral compounds is indicated by the positive readout of increased WST-1 cleavage.
(§2) Briefly, exponentially growing MT-4 cells were mock-infected or batch-infected with the HIV-1 laboratory strain, NL4-3, at a multiplicity of infection of 0.0005. Following a two hour infection, the cells were washed to remove unbound virus and plated in the presence of increasing concentrations of compound. After four days incubation, cytoprotection in the infected cells and compound toxicity in mock-infected cells were analyzed using the WST-1 assay.

[1] = tested on: HIV-1 laboratory strain, NL4-3; test: MT-4 Cytoprotection Assay (protection from HIV-induced cytopathic effect, WST-1); type: cell-based; details: Human immunodeficiency virus 1, NL43; representative compounds; read-out: EC50 of less than about 100 nm
Description: MT-4 Cytoprotection Assay
as §1, §2

| SMILES | CC50 (mock-infected MT-4 cells) [µM] | EC50 [1] [µM] |
| --- | --- | --- |
| C=C(C)[C@@H]1CC[C@]2(C(=O)NCc3ccc(C(=O)O)cc3)CC[C@]3(C)[C@H](CC[C@@H]4[C@@]5(C)CC[C@H](OC(=O)CC(C)(C)C(=O)O)C(C)(C)[C@@H]5CC[C@]43C)[C@@H]12 [Compound 71] | ~7.7 |  |
| C=C(C)[C@@H]1CC[C@]2(C(=O)NCc3ccccc3C(=O)O)CC[C@]3(C)[C@H](CC[C@@H]4[C@@]5(C)CC[C@H](OC(=O)CC(C)(C)C(=O)O)C(C)(C)[C@@H]5CC[C@]43C)[C@@H]12 [Compound 73] | ~6.3 |  |
| CC(C)[C@@H]1CC[C@]2(C(=O)NCCC3CCCCC3)CC[C@]3(C)[C@H](CC[C@@H]4[C@@]5(C)CC[C@H](OC(=O)CC(C)(C)C(=O)O)C(C)(C)[C@@H]5CC[C@]43C)[C@@H]12 [Compound 124] |  | < 0.1 |

Source: patent US20110144069A1, “COMPOUNDS FOR TREATING VIRAL INFECTIONS” (priority 2006, published 2011)
